Laboratory results as given in PMC11062894, “Protein-based bandpass filters for controlling cellular signaling with chemical inputs” (Nature Chemical Biology, 2023).

Tested on: GEMS receptors with CBPA11 (BclXL–LD3 and BclXLhigh variants), STAT3-driven SEAP in HEK293T cells
Test: GEMS SEAP reporter assay, CBPA11 (BclXLhigh, LD3-v and BclXL-v variants) with A-1155463
Assay type: cell-based
Design: key to Raw data (SEAP) / SEAP, replicate values / Raw data of Figure 5b / Raw data Figure 5e / Raw data of Independent repeat of CBPA11-v1 vs CBPA11-v1-LD3v3 / Raw data of Independent repeat of CBPA11-v3 vs CBPA11-v3-LD3v3 / Raw data of Figure 5b, CBPA11-v1-LD3v3 (SEAP reporter raw value, single replicate) / Raw data of Figure 5b, CBPA11-v1 (SEAP reporter raw value, single replicate): SEAP activity in U/L in culture supernatant
From the text: To rationally design a CBP responding to a chemical input, we used BclXL as the druglow receptor, LD3 as the designed binder and a designed BclXL variant as the drughigh receptor (referred to as BclXLhigh) to construct a CBP responsive to BclXL inhibitors (Fig. 4a). To design BclXLhigh, we used a multistate design computational protocol described elsewhere[26] […] Thus, BclXLhigh-v(1–3) were chosen as the functional drughigh receptors, resulting in three A-1155463-controlled CBPs (referred to as CBPA11-v(1–3)) (Fig. 4c–e).
HEK293T cells were seeded in a 96-well plate 24 h before transfection. The transfection mix in each well consisted of 3 ng of constitutive human CMV promoter driven mammalian STAT3 expression vector (PhCMV-STAT3-pA), 30 ng of STAT3-induced reporter expression (OStat3-PhCMVmin-SEAP-pA) and 50 ng of expression vectors for each GEMS receptor chain (PSV40-IgK-(drughigh receptor)-EpoRm-IL-6RBm-pA and PSV40-IgK-(druglow receptor-GGGGSX3-LD3)-EpoRm-IL-6RBm-pA). For the specific drughigh receptor and druglow receptor used in the different cellular assays, they are indicated as wild type or with mutations. Then, plasmid DNA was mixed with 50 μl opti-MEM (Thermo Fisher) and 600 ng of polyethyleneimine (Polysciences, catalog no. 24765-1). For drug treatment experiments, drugs were added 12 h post-transfection and incubated with cells for 24 h before the SEAP reporter detection assay.
SEAP activity (U l^−1) in cell culture supernatants was quantified by kinetic measurements at 405 nm (1 minute per measurement for 30 cycles) of absorbance increase due to phosphatase-mediated hydrolysis of para-nitrophenyl phosphate (pNPP).
Binding affinities of SPR drug competition assays were calculated using three-parameter nonlinear regression in GraphPad Prism (v.8.3.0). Representative data of cell assays are presented as individual values and mean values (bars). n = 3 refers to biological replicates. All IC50 or EC50 values of cell assays reported were calculated using four-parameter nonlinear regression ± s.d. Bandpass features of cutoff concentrations and Bandwidth90% were estimated based on the curve fitted using bell-shaped curve nonlinear regression in GraphPad Prism (v.8.3.0). […]
Supplementary Figure 4: Design, screening and validation of BclXLhigh variants. a) Screening of BclXLhigh variants in the GEMS platform. […]
Dissociation constant measurement of BclXLhigh-v(1-3) and LD3. Equilibrium curves are fitted using […]
BclXLhigh-v1 (purple), BclXLhigh-v2 (blue), […]
a) Bcl2high-based bandpass filter designs were developed and to respond to different concentrations of […]
corresponding inhibitor. c) Screening of Bcl2high-based bandpass filter variants in the GEMS platform.
The designed binder LD3 was fused to the druglow-receptor (PSV40-IgK-Bcl2-LD3-EpoRm-IL-6RBm-pA) in one EpoR chain and Bcl2high variants with the insensitive Bcl2 (iBcl2) as control in the other EpoR chain (PSV40-IgK-Bcl2high-EpoRm-IL-6RBm-pA). HEK293T cells were transfected with indicated […]
the mean of six biological replicates ± s.d., overlaid with a scatter dot plot of the original data points.
(1 picture or pasted object on this page, not shown here)
Supplementary Figure 6: Binding affinities and drug resistances of Bcl2high-v(2,4,5) assessed by […]
a) Measurement of dissociation constants for Bcl2high-v(2,4,5) and LD3 interactions. Equilibrium curves […]
Bcl2high-v(2,4,5) measured by SPR. 5 μM of Bcl2 or indicated variants were mixed with 10 μM of […]
Bcl2high-v2 (red), Bcl2high-v4
Supplementary Figure 7: Screening of LD3 variants in CBPA11-v(1-3) and raw data of CBPA11-v(1,3) with LD3-v3 variant. a-c) Screening of LD3 and LD3-v(1-3) variants in complex with BclXL for more sensitive CBPA11-v1 (a), CBPA11-v2 (b), CBPA11-v3 (c) in the GEMS platform. The LD3 variants replaced the role of LD3 (PSV40-IgK-BclXL-LD3-v(1-3)-EpoRm-IL-6RBm-pA) in one EpoR chain and BclXLhigh-v(1-3) in the other EpoR chain (PSV40-IgK-BclXLhigh-V(1-3)-EpoRm-IL-6RBm-pA). HEK293T cells were transfected with […]

[1] = SuppFigure 9a, BclXL, A-1155463 3.16 nM
[2] = SuppFigure 9a, BclXL, A-1155463 100 nM
[3] = SuppFigure 9a, BclXL, A-1155463 316 nM
[4] = SuppFigure 9a, BclXL, A-1155463 1000 nM
[5] = SuppFigure 9a, BclXL, A-1155463 3160 nM
[6] = SuppFigure 9a, BclXL, A-1155463 10000 nM
[7] = SuppFigure 9b, BclXL-v1, A-1155463 1 nM
[8] = SuppFigure 9b, BclXL-v1, A-1155463 3.16 nM
[9] = SuppFigure 9b, BclXL-v1, A-1155463 10 nM
[10] = SuppFigure 9b, BclXL-v1, A-1155463 31.6 nM
[11] = SuppFigure 9b, BclXL-v1, A-1155463 100 nM
[12] = SuppFigure 9b, BclXL-v1, A-1155463 316 nM
[13] = SuppFigure 9b, BclXL-v1, A-1155463 1000 nM
[14] = SuppFigure 9b, BclXL-v1, A-1155463 3160 nM
[15] = SuppFigure 9b, BclXL-v1, A-1155463 10000 nM
[16] = SuppFigure 9b, BclXL-v2, A-1155463 1 nM
[17] = SuppFigure 9b, BclXL-v2, A-1155463 3.16 nM
[18] = SuppFigure 9b, BclXL-v2, A-1155463 10 nM
[19] = SuppFigure 9b, BclXL-v2, A-1155463 31.6 nM
[20] = SuppFigure 9b, BclXL-v2, A-1155463 100 nM
[21] = SuppFigure 9b, BclXL-v2, A-1155463 316 nM
[22] = SuppFigure 9b, BclXL-v2, A-1155463 1000 nM
[23] = SuppFigure 9b, BclXL-v2, A-1155463 3160 nM
[24] = SuppFigure 9b, BclXL-v2, A-1155463 10000 nM
[25] = SuppFigure 9b, BclXL-v3, A-1155463 1 nM
[26] = SuppFigure 9b, BclXL-v3, A-1155463 3.16 nM
[27] = SuppFigure 9b, BclXL-v3, A-1155463 10 nM
[28] = SuppFigure 9b, BclXL-v3, A-1155463 31.6 nM
[29] = SuppFigure 9b, BclXL-v3, A-1155463 100 nM
[30] = SuppFigure 9b, BclXL-v3, A-1155463 316 nM
[31] = SuppFigure 9b, BclXL-v3, A-1155463 1000 nM
[32] = SuppFigure 9b, BclXL-v3, A-1155463 3160 nM
[33] = SuppFigure 9b, BclXL-v3, A-1155463 10000 nM
[34] = SuppFigure 9b, BclXL, A-1155463 1 nM
[35] = SuppFigure 9b, BclXL, A-1155463 3.16 nM
[36] = SuppFigure 9b, BclXL, A-1155463 10 nM
[37] = SuppFigure 9b, BclXL, A-1155463 31.6 nM
[38] = SuppFigure 9b, BclXL, A-1155463 100 nM
[39] = SuppFigure 9b, BclXL, A-1155463 316 nM
[40] = SuppFigure 9b, BclXL, A-1155463 1000 nM
[41] = SuppFigure 9b, BclXL, A-1155463 3160 nM
[42] = SuppFigure 9b, BclXL, A-1155463 10000 nM
[43] = SuppFigure 9c, LD3, A-1155463 1 nM
[44] = SuppFigure 9c, LD3, A-1155463 3.16 nM
[45] = SuppFigure 9c, LD3, A-1155463 10 nM
[46] = SuppFigure 9c, LD3, A-1155463 31.6 nM
[47] = SuppFigure 9c, LD3, A-1155463 100 nM

CN(C)CC#Cc1ccc(OCCCc2sc(N3CCc4cccc(C(=O)Nc5nc6ccccc6s5)c4C3)nc2C(=O)O)c(F)c1 [A-1155463]
Normalized data (SEAP) [1]: 6.043
Raw data (SEAP) [1]: 25.9846
Normalized data (SEAP) [2]: 100
Raw data (SEAP) [2]: 429.99
Normalized data (SEAP) [3]: 92.0518
Raw data (SEAP) [3]: 395.813
Normalized data (SEAP) [4]: 64.9807
Raw data (SEAP) [4]: 279.41
Normalized data (SEAP) [5]: 59.757
Raw data (SEAP) [5]: 256.949
Normalized data (SEAP) [6]: 20.582
Raw data (SEAP) [6]: 88.5006
Normalized data (SEAP) [7]: 29.2402
Raw data (SEAP) [7]: 3.306
Normalized data (SEAP) [8]: 25.4197
Raw data (SEAP) [8]: 2.874
Normalized data (SEAP) [9]: 91.2564
Raw data (SEAP) [9]: 10.3177
Normalized data (SEAP) [10]: 99.5447
Raw data (SEAP) [10]: 11.2548
Normalized data (SEAP) [11]: 88.866
Raw data (SEAP) [11]: 10.0475
Normalized data (SEAP) [12]: 80.3713
Raw data (SEAP) [12]: 9.087
Normalized data (SEAP) [13]: 71.8768
Raw data (SEAP) [13]: 8.127
Normalized data (SEAP) [14]: 100
Raw data (SEAP) [14]: 11.3063
Normalized data (SEAP) [15]: 93.1986
Raw data (SEAP) [15]: 10.5373
Normalized data (SEAP) [16]: 14.254
Raw data (SEAP) [16]: 6.039
Normalized data (SEAP) [17]: 18.0852
Raw data (SEAP) [17]: 7.662
Normalized data (SEAP) [18]: 44.9661
Raw data (SEAP) [18]: 19.0516
Normalized data (SEAP) [19]: 70.6852
Raw data (SEAP) [19]: 29.9485
Normalized data (SEAP) [20]: 100
Raw data (SEAP) [20]: 42.3689
Normalized data (SEAP) [21]: 44.6168
Raw data (SEAP) [21]: 18.9036
Normalized data (SEAP) [22]: 22.2068
Raw data (SEAP) [22]: 9.409
Normalized data (SEAP) [23]: 14.8235
Raw data (SEAP) [23]: 6.281
Normalized data (SEAP) [24]: 14.5729
Raw data (SEAP) [24]: 6.174
Normalized data (SEAP) [25]: 52.1022
Raw data (SEAP) [25]: 4.346
Normalized data (SEAP) [26]: 54.3684
Raw data (SEAP) [26]: 4.535
Normalized data (SEAP) [27]: 49.6336
Raw data (SEAP) [27]: 4.14
Normalized data (SEAP) [28]: 58.6885
Raw data (SEAP) [28]: 4.895
Normalized data (SEAP) [29]: 75.7473
Raw data (SEAP) [29]: 6.318
Normalized data (SEAP) [30]: 55.3616
Raw data (SEAP) [30]: 4.618
Normalized data (SEAP) [31]: 57.9749
Raw data (SEAP) [31]: 4.836
Normalized data (SEAP) [32]: 83.7705
Raw data (SEAP) [32]: 6.988
Normalized data (SEAP) [33]: 90.2218
Raw data (SEAP) [33]: 7.526
Normalized data (SEAP) [34]: 18.8536
Raw data (SEAP) [34]: 4.217
Normalized data (SEAP) [35]: 21.8131
Raw data (SEAP) [35]: 4.879
Normalized data (SEAP) [36]: 73.5481
Raw data (SEAP) [36]: 16.4519
Normalized data (SEAP) [37]: 74.0156
Raw data (SEAP) [37]: 16.5565
Normalized data (SEAP) [38]: 100
Raw data (SEAP) [38]: 22.3689
Normalized data (SEAP) [39]: 57.787
Raw data (SEAP) [39]: 12.9263
Normalized data (SEAP) [40]: 39.6131
Raw data (SEAP) [40]: 8.861
Normalized data (SEAP) [41]: 30.6519
Raw data (SEAP) [41]: 6.8565
Normalized data (SEAP) [42]: 26.3116
Raw data (SEAP) [42]: 5.886
Normalized data (SEAP) [43]: 9.095
Raw data (SEAP) [43]: 7.283
Normalized data (SEAP) [44]: 10.2911
Raw data (SEAP) [44]: 8.241
Normalized data (SEAP) [45]: 55.7186
Raw data (SEAP) [45]: 44.6179
Normalized data (SEAP) [46]: 64.2529
Raw data (SEAP) [46]: 51.4519
Normalized data (SEAP) [47]: 100
Raw data (SEAP) [47]: 80.0772
Normalized data (SEAP) (SuppFigure 9c, LD3, A-1155463 316 nM): 76.4435
